Measured values taken from US7781565B2 (priority 2006, dated 2010).
Entries after “also recorded” stand apart in the source; their conditions may differ.

The substances below were run on NCI-60 cell lines.
Format: cell-based, human
GSGILDL was tested, and the “Cell Line with which the peptide (and its tripeptide motif) is associated” value (“Cell Line with which the peptide” for short) was “EKVX-Lung”. In the case of FGGSMAP, the “Cell Line (NCI-60 cell line the peptide and its motif are associated with)” value is reported as “SK-MEL-2 Melanoma”. With RSLGSVG the “Cell Line (NCI-60 cell line the peptide and its motif are associated with)” value was “DU-145 Prostate”. ASGLVVT was tested, and the “Cell Line (NCI-60 cell line the peptide is associated with)” value was “SNB-75 CNS”. For HSLVSQP, the “Cell Line (NCI-60 cell line the peptide is associated with)” value was “SNB-19 CNS; also recorded: SF-539 CNS”. With FLHMRLS the “Cell Line (NCI-60 cell line the peptide and its motif are associated with)” value was “M14 Melanoma”. ERGSPSR was tested, and the “Cell Line with which the peptide” value was “H460-Lung”. MVLRGSY was tested, and the “Cell Line (NCI-60 cell line the peptide is associated with)” value was “SNB-75 CNS”. In the case of GSTLLSR, the “Cell Line (NCI-60 cell line the peptide is associated with)” value is reported as “LOX-IMVI Melanoma”. In the case of KGRVSAG, the “Cell Line (NCI-60 cell line the peptide is associated with)” value is reported as “SNB-19 CNS; also recorded: SF-539 CNS”. In the case of SWAGVRF, the “Cell Line (NCI-60 cell line the peptide and its motif are associated with)” value is reported as “OVCAR-5 Ovarian”. With RIGAVWY the “Cell Line (NCI-60 cell line the peptide is associated with)” value was “HT-29 Colon”. For FSSKRGV, the “Cell Line with which the peptide” value was “RPMI-8226-Leukemia”. With NAVRGSA the “Cell Line (NCI-60 cell line the peptide is associated with)” value was “HCT-116 Colon”. In the case of REAERVS, the “Cell Line with which the peptide” value is reported as “H322-Lung”. With GVSALSL the “Cell Line (NCI-60 cell line the peptide is associated with)” value was “HT-29 Colon”. For DWWAGVR, the “Cell Line with which the peptide” value was “CCRF-CEM Leukemia”. KRAVGRM was tested, and the “Cell Line (NCI-60 cell line the peptide and its motif are associated with)” value was “A498 Renal”. In the case of HVSGGSG, the “Cell Line with which the peptide” value is reported as “Hop-92-Lung”. With PGGSRHA the “Cell Line (NCI-60 cell line the peptide and its motif are associated with)” value was “SK-MEL-5 Melanoma”. With VIGSRLS the “Cell Line with which the peptide” value was “EKVX-Lung”. For TSGAVAP, the “Cell Line the peptide is associated with (peptide recovered from phage library selection on this NCI-60 cell line)” value was “HS 578 T Breast”. For PLRVDNL, the “Cell Line with which the peptide” value was “H23-Lung”. With GLLSSFS the “Cell Line (NCI-60 cell line the peptide and its motif are associated with)” value was “M14 Melanoma”. GRVTGGR was tested, and the “Cell Line (NCI-60 cell line the peptide is associated with)” value was “HCT-15 Colon”. With TNRFARG the “Cell Line the peptide is associated with (peptide recovered from phage library selection on this NCI-60 cell line)” value was “T-47D Breast”. In the case of LYGGVRY, the “Cell Line with which the peptide” value is reported as “A549-Lung”. With RMGLLRQ the “Cell Line (NCI-60 cell line the peptide and its motif are associated with)” value was “M14 Melanoma”. With GEGGSGG the “Cell Line (NCI-60 cell line the peptide and its motif are associated with)” value was “OVCAR-5 Ovarian”. With YAASLMG the “Cell Line (NCI-60 cell line the peptide is associated with)” value was “SNB-75 CNS”. In the case of FGGRSLS, the “Cell Line (NCI-60 cell line the peptide is associated with)” value is reported as “SNB-75 CNS”. For GLGGWVA, the “Cell Line with which the peptide” value was “H226-Lung”. GGSKGSA was tested, and the “Cell Line (NCI-60 cell line the peptide and its motif are associated with)” value was “UACC 257 Melanoma”. AGRGAGG was tested, and the “Cell Line (NCI-60 cell line the peptide and its motif are associated with)” value was “OVCAR-4 Ovarian”. In the case of RVRSSLA, the “Cell Line the peptide is associated with (peptide recovered from phage library selection on this NCI-60 cell line)” value is reported as “HS 578 T Breast”. FAGRVPS was tested, and the “Cell Line with which the peptide” value was “RPMI-8226-Leukemia”. With LAGRASE the “Cell Line (NCI-60 cell line the peptide and its motif are associated with)” value was “OVCAR-4 Ovarian”. With AARGLEA the “Cell Line (NCI-60 cell line the peptide is associated with)” value was “COLO-205-Colon”. With GARAVAP the “Cell Line the peptide is associated with (peptide recovered from phage library selection on this NCI-60 cell line)” value was “HS 578 T Breast”. RVSSETF was tested, and the “Cell Line (NCI-60 cell line the peptide and its motif are associated with)” value was “A498 Renal”. For SGVSVEG, the “Cell Line with which the peptide” value was “Hop-62-Lung”. LRSSLVS was tested, and the “Cell Line the peptide is associated with (peptide recovered from phage library selection on this NCI-60 cell line)” value was “RXF393 Renal”. RGSRTGP was tested, and the “Cell Line (NCI-60 cell line the peptide is associated with)” value was “U251 CNS”. In the case of SVTGRVS, the “Cell Line (NCI-60 cell line the peptide and its motif are associated with)” value is reported as 786-0 Renal. In the case of ERYYLRS, the “Cell Line the peptide is associated with (peptide recovered from phage library selection on this NCI-60 cell line)” value is reported as “MCF-7 Breast”. With DEGLRSR the “Cell Line (NCI-60 cell line the peptide is associated with)” value was “HCT-116 Colon”. For GVLTRGN, the “Cell Line (NCI-60 cell line the peptide and its motif are associated with)” value was “OVCAR-8 Ovarian”. In the case of RGVGAKA, the “Cell Line the peptide is associated with (peptide recovered from phage library selection on this NCI-60 cell line)” value is reported as “NCI/ADR-RES Breast”. RAVCEWD was tested, and the “Cell Line the peptide is associated with (peptide recovered from phage library selection on this NCI-60 cell line)” value was “CAIK-1 Renal”. In the case of EPDGVRS, the “Cell Line with which the peptide” value is reported as “CCRF-CEM Leukemia”. SGGLVLT was tested, and the “Cell Line with which the peptide” value was “Hop-92-Lung”. In the case of LLLRSGG, the “Cell Line with which the peptide” value is reported as “RPMI-8226-Leukemia”. ARGVLLM was tested, and the “Cell Line with which the peptide” value was “CCRF-CEM Leukemia”. For SLGSVGS, the “Cell Line with which the peptide” value was “EKVX-Lung”. KVVGRLG was tested, and the “Cell Line (NCI-60 cell line the peptide is associated with)” value was “HCT-116 Colon”. In the case of RGSVRVL, the “Cell Line with which the peptide” value is reported as “HL-60-Leukemia”. With DGGRRTD the “Cell Line (NCI-60 cell line the peptide is associated with)” value was “HCT-15 Colon”. With TRSSLTH the “Cell Line the peptide is associated with (peptide recovered from phage library selection on this NCI-60 cell line)” value was “TK-10 Renal”. PTSGRLV was tested, and the “Cell Line (NCI-60 cell line the peptide and its motif are associated with)” value was “PC3 Prostate”. In the case of TIPAGGG, the “Cell Line the peptide is associated with (peptide recovered from phage library selection on this NCI-60 cell line)” value is reported as “MDA-MB-231 Breast”. TAGGAVG was tested, and the “Cell Line (NCI-60 cell line the peptide is associated with)” value was “SW620-Colon”. GSGGANL was tested, and the “Cell Line (NCI-60 cell line the peptide and its motif are associated with)” value was “DU-145 Prostate”. For RAVLELW, the “Cell Line (NCI-60 cell line the peptide and its motif are associated with)” value was “SK-MEL-28 Melanoma”. With HAAHGLV the “Cell Line with which the peptide” value was “Hop-92-Lung”. In the case of YVRIGRV, the “Cell Line (NCI-60 cell line the peptide is associated with)” value is reported as “HCT-15 Colon”. In the case of YMYHGRV, the “Cell Line (NCI-60 cell line the peptide and its motif are associated with)” value is reported as “OVCAR-4 Ovarian”. With FIAGGVG the “Cell Line the peptide is associated with (peptide recovered from phage library selection on this NCI-60 cell line)” value was “ACHN Renal”. With LLSVTSX the “Cell Line the peptide is associated with (peptide recovered from phage library selection on this NCI-60 cell line)” value was “SN12C Renal”. With PVHSAGG the “Cell Line with which the peptide” value was “H460-Lung”. For LSRGSVA, the “Cell Line (NCI-60 cell line the peptide and its motif are associated with)” value was “M14 Melanoma”. For AAKTLLS, the “Cell Line (NCI-60 cell line the peptide is associated with)” value was “SW620-Colon”. In the case of LGGAAVR, the “Cell Line the peptide is associated with (peptide recovered from phage library selection on this NCI-60 cell line)” value is reported as “T-47D Breast”. RASIGIE was tested, and the “Cell Line (NCI-60 cell line the peptide and its motif are associated with)” value was “UACC 257 Melanoma”. GSGVRVS was tested, and the “Cell Line (NCI-60 cell line the peptide and its motif are associated with)” value was “SK-MEL-28 Melanoma”. ARAGSTF was tested, and the “Cell Line (NCI-60 cell line the peptide and its motif are associated with)” value was “A498 Renal”. MRPGLRS was tested, and the “Cell Line the peptide is associated with (peptide recovered from phage library selection on this NCI-60 cell line)” value was “MDA-MB-231 Breast”. DVSGRVP was tested, and the “Cell Line with which the peptide” value was “HL-60-Leukemia”. With SLYRGRL the “Cell Line the peptide is associated with (peptide recovered from phage library selection on this NCI-60 cell line)” value was “T-47D Breast”. AGRIASK was tested, and the “Cell Line (NCI-60 cell line the peptide is associated with)” value was “HT-29 Colon”. In the case of VVASLPH, the “Cell Line (NCI-60 cell line the peptide is associated with)” value is reported as “HT-29 Colon”. In the case of PPRAVTN, the “Cell Line (NCI-60 cell line the peptide and its motif are associated with)” value is reported as “UACC62 Melanoma”. In the case of YWGGSVP, the “Cell Line the peptide is associated with (peptide recovered from phage library selection on this NCI-60 cell line)” value is reported as “UO31 Renal”. In the case of WGAGFWM, the “Cell Line with which the peptide” value is reported as “H460-Lung”. In the case of ASAGAVS, the “Cell Line (NCI-60 cell line the peptide and its motif are associated with)” value is reported as 786-0 Renal. With TRGVIGG the “Cell Line the peptide is associated with (peptide recovered from phage library selection on this NCI-60 cell line)” value was “T-47D Breast”. In the case of VWGVGGS, the “Cell Line with which the peptide” value is reported as “K-562-Leukemia”. For YGVSRLL, the “Cell Line (NCI-60 cell line the peptide and its motif are associated with)” value was “DU-145 Prostate”. QRYHLRS was tested, and the “Cell Line the peptide is associated with (peptide recovered from phage library selection on this NCI-60 cell line)” value was “CAIK-1 Renal”. In the case of AAGRSRI, the “Cell Line (NCI-60 cell line the peptide and its motif are associated with)” value is reported as “M14 Melanoma”. GVLARVT was tested, and the “Cell Line with which the peptide” value was “CCRF-CEM Leukemia”. For VGLRCSV, the “Cell Line the peptide is associated with (peptide recovered from phage library selection on this NCI-60 cell line)” value was “BT-549 Breast”. RLRSYVA was tested, and the “Cell Line (NCI-60 cell line the peptide and its motif are associated with)” value was 786-0 Renal. For AGLLSDV, the “Cell Line the peptide is associated with (peptide recovered from phage library selection on this NCI-60 cell line)” value was “NCI/ADR-RES Breast”. SAAGRTF was tested, and the “Cell Line (NCI-60 cell line the peptide and its motif are associated with)” value was “SK-MEL-2 Melanoma”. For EGRLMLA, the “Cell Line (NCI-60 cell line the peptide and its motif are associated with)” value was “MALME-3M Melanoma”. In the case of VNLGGSW, the “Cell Line with which the peptide” value is reported as “H322-Lung”. PLRVLKR was tested, and the “Cell Line (NCI-60 cell line the peptide is associated with)” value was “SF-295 CNS”. In the case of IGGRWVV, the “Cell Line (NCI-60 cell line the peptide and its motif are associated with)” value is reported as “SK-OV-3-3 Ovarian”. With GHGSGSR the “Cell Line the peptide is associated with (peptide recovered from phage library selection on this NCI-60 cell line)” value was “ACHN Renal”. DRQLAGR was tested, and the “Cell Line the peptide is associated with (peptide recovered from phage library selection on this NCI-60 cell line)” value was “HS 578 T Breast”. For EWHAASG, the “Cell Line (NCI-60 cell line the peptide and its motif are associated with)” value was “SK-MEL-2 Melanoma”. In the case of IGRLLPL, the “Cell Line with which the peptide” value is reported as “HL-60-Leukemia”. In the case of LSKGGSE, the “Cell Line the peptide is associated with (peptide recovered from phage library selection on this NCI-60 cell line)” value is reported as “T-47D Breast”. In the case of SFGVLSG, the “Cell Line the peptide is associated with (peptide recovered from phage library selection on this NCI-60 cell line)” value is reported as “HS 578 T Breast”. LHAGSSV was tested, and the “Cell Line the peptide is associated with (peptide recovered from phage library selection on this NCI-60 cell line)” value was “MDA-MB-231 Breast”. In the case of NSKPLVS, the “Cell Line the peptide is associated with (peptide recovered from phage library selection on this NCI-60 cell line)” value is reported as “T-47D Breast”. AVSLVVL was tested, and the “Cell Line (NCI-60 cell line the peptide and its motif are associated with)” value was “OVCAR-8 Ovarian”. NSVRGSR was tested, and the “Cell Line (NCI-60 cell line the peptide and its motif are associated with)” value was “SK-OV-3-3 Ovarian”. With GGRCGAE the “Cell Line the peptide is associated with (peptide recovered from phage library selection on this NCI-60 cell line)” value was “BT-549 Breast”. SNFYGSS was tested, and the “Cell Line (NCI-60 cell line the peptide and its motif are associated with)” value was “M14 Melanoma”. WVSGRLG was tested, and the “Cell Line (NCI-60 cell line the peptide is associated with)” value was “COLO-205-Colon”. With TELVSWS the “Cell Line with which the peptide” value was “H322-Lung”. For DGPSGCS, the “Cell Line (NCI-60 cell line the peptide is associated with)” value was “SNB-75 CNS”.
